Source: US20240246940A1, “HETEROARYL DERIVATIVE COMPOUND AND USE THEREOF” (VORONOI INC., priority 2021, published 2024)

Legend:
[1] = tested on: SK-BR-3 cells (HER2 overexpressing cell line); experiment: SK-BR-3 cell proliferation inhibitory activity (CellTiter-Glo, 120 hours); type: cell-based; conditions: Homo sapiens
Summary of the method: (§1)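 Luminescent viability read-out, growth % vs control → GI50, n=3. Seeding: SK-BR-3/BT-474 5000 cells, 48 h pre-plating; N-87 5000, 24 h; HaCaT 3000, 24 h. Dose ranges: 0.2 nM–10 μM (SK-BR-3, BT-474; 3-fold), […]–5 μM (N-87; 5-fold), 0.8 nM–45 μM (HaCaT; 3-fold).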

[2] = tested on: HaCaT cells (EGFR expressing cell line); experiment: HaCaT cell proliferation inhibitory activity (CellTiter-Glo, 72 hours); type: cell-based; conditions: Homo sapiens
Summary of the method: as §1

| SMILES | GI50 [1] [nM] | GI50 [2] [nM] |
| --- | --- | --- |
| C=CC(=O)N1CC(Oc2cc3c(Nc4cc(-c5cccc(NC(=O)N6C(=O)OC[C@H]6c6ccccc6)c5)ccc4OC)ncnc3cc2OC)C1 [Example 236, (R)-N-(3′-((6-((1-acryloylazetidin-3-yl)oxy)-7-methoxyquinazolin-4-yl)amino)-4′-methoxy-[1,1′-biphenyl]-3-yl)-2-oxo-4-phenyloxazolidin-3-carboxamide] | 150 to 1000 | > 1000 |
| C=CC(=O)N1CC(Oc2cc3c(Nc4cc(-c5cccc(NC(=O)N6C(=O)OC[C@@H]6c6ccccc6)c5)ccc4OC)ncnc3cc2OC)C1 [Example 237, (S)-N-(3′-((6-((1-acryloylazetidin-3-yl)oxy)-7-methoxyquinazolin-4-yl)amino)-4′-methoxy-[1,1′-biphenyl]-3-yl)-2-oxo-4-phenyloxazolidin-3-carboxamide] | 150 to 1000 | > 1000 |
| C=CC(=O)N1CCC(Oc2cc3c(Nc4cc(-c5ccco5)ccc4OC)ncnc3cc2OCC)CC1 [Example 238, 1-(4-((7-ethoxy-4-((5-(furan-2-yl)-2-methoxyphenyl)amino)quinazolin-6-yl)oxy)piperidin-1-yl)prop-2-en-1-one] | ≤ 150 | ≤ 150 |
| C=CC(=O)N1CC(Oc2cc3c(Nc4cc(-c5cccs5)ccc4OC4CCN(C)C4)ncnc3cc2OC)C1 (centres unmarked) [Example 240, 1-(3-((7-methoxy-4-((2-((1-methylpyrrolidin-3-yl)oxy)-5-(thiophen-2-yl)phenyl)amino)quinazolin-6-yl)oxy)azetidin-1-yl)prop-2-en-1-one] | ≤ 150 | ≤ 150 |
| C=CC(=O)N1CC(Oc2cc3c(Nc4cc(-c5ccco5)ccc4OC4CCN(C)C4)ncnc3cc2OC)C1 (centres unmarked) [Example 241, 1-(3-((4-((5-(furan-2-yl)-2-((1-methylpyrrolidin-3-yl)oxy)phenyl)amino)-7-methoxyquinazolin-6-yl)oxy)azetidin-1-yl)prop-2en-1-one] | ≤ 150 | ≤ 150 |
| C=CC(=O)N1CC(Oc2cc3c(Nc4cc(-c5ccn6ncnc6c5)ccc4OC4CCN(C)C4)ncnc3cc2OC)C1 (centres unmarked) [Example 242] | 150 to 1000 | ≤ 150 |
| C=CC(=O)N1CC(Oc2cc3c(Nc4cc(-c5cccs5)ccc4OC4CCOCC4)ncnc3cc2OC)C1 [Example 248, 1-(3-((7-methoxy-4-((2-((tetrahydro-2H-pyran-4-yl)oxy)-5-(thiophen-2-yl)phenyl)amino)quinazolin-6-yl)oxy)azetidin-1-yl)prop-2-en-1-one] | ≤ 150 | ≤ 150 |
| C=CC(=O)N1CC(Oc2cc3c(Nc4cc(-c5ccco5)ccc4OC4CCOCC4)ncnc3cc2OC)C1 [Example 249, 1-(3-((4-((5-(furan-2-yl)-2-((tetrahydro-2H-pyran-4-yl)oxy)phenyl)amino)-7-methoxyquinazolin-6-yl)oxy)azetidin-1-yl)prop-2-en-1-one] | 150 to 1000 | ≤ 150 |
| C=CC(=O)N1CCC(Oc2cc3c(Nc4cc(-c5cccs5)ccc4OC4CCN(C)C4)ncnc3cc2OC)CC1 (centres unmarked) [Example 250, 1-(4-((7-methoxy-4-((2-((1-methylpyrrolidin-3-yl)oxy)-5-(thiophen-2-yl)phenyl)amino)quinazolin-6-yl)oxy)piperidin-1-yl)prop-2-en-1-one] | ≤ 150 | ≤ 150 |
| C=CC(=O)N1CCC(Oc2cc3c(Nc4cc(-c5ccco5)ccc4OC4CCN(C)C4)ncnc3cc2OC)CC1 (centres unmarked) [Example 251, 1-(4-((4-((5-(furan-2-yl)-2-((1-methylpyrrolidin-3-yl)oxy)phenyl)amino)-7-methoxyquinazolin-6-yl)oxy)piperidin-1-yl)prop-2-en-1-one] | ≤ 150 | ≤ 150 |
| C=CC(=O)N1CCC(Oc2cc3c(Nc4cc(-c5ccco5)ccc4OC4CC4)ncnc3cc2OC)CC1 [Example 253, 1-(4-((4-((2-cyclopropoxy-5-(furan-2-yl)phenyl)amino)-7-methoxyquinazolin-6-yl)oxy)piperidin-1-yl)prop-2-en-1-one] | ≤ 150 | ≤ 150 |
| C=CC(=O)N1CCC(Oc2cc3c(Nc4cc(-c5ccco5)ccc4OC4COC4)ncnc3cc2OC)CC1 [Example 255, 1-(4-((4-((5-(furan-2-yl)-2-(oxetan-3-yloxy)phenyl)amino)-7-methoxyquinazolin-6-yl)oxy)piperidin-1-yl)prop-2-en-1-one] | ≤ 150 | ≤ 150 |
| C=CC(=O)N1CCC(Oc2cc3c(Nc4cc(-c5cccs5)ccc4OC4CCOCC4)ncnc3cc2OC)CC1 [Example 257, 1-(4-((7-methoxy-4-((2-((tetrahydro-2H-pyran-4-yl)oxy)-5-(thiophen-2-yl)phenyl)amino)quinazolin-6-yl)oxy)piperidin-1-yl)prop-2-en-1-one] | 150 to 1000 | ≤ 150 |
| C=CC(=O)N1CCC(Oc2cc3c(Nc4cc(-c5ccco5)ccc4OC4CCOCC4)ncnc3cc2OC)CC1 [Example 258, 1-(4-((4-((5-(furan-2-yl)-2-((tetrahydro-2H-pyran-4-yl)oxy)phenyl)amino)-7-methoxyquinazolin-6-yl)oxy)piperidin-1-yl)prop-2-en-1-one] | 150 to 1000 | ≤ 150 |
| C=CC(=O)N1CCC(Oc2cc3c(Nc4cc(-c5ccco5)ccc4OCCOC)ncnc3cc2OC)CC1 [Example 259, 1-(4-((4-((5-(furan-2-yl)-2-(2-methoxyethoxy)phenyl)amino)-7-methoxyquinazolin-6-yl)oxy)piperidin-1-yl)prop-2-en-1-one] | ≤ 150 | ≤ 150 |
| C=CC(=O)N1CCC(Nc2cc3c(Nc4cc(-c5ccco5)ccc4OC)ncnc3cc2OCCOC)CC1 [Example 262, 1-(4-((4-((5-(furan-2-yl)-2-methoxyphenyl)amino)-7-(2-methoxyethoxy)quinazolin-6-yl)amino)piperidin-1-yl)prop-2-en-1-one] | ≤ 150 | ≤ 150 |
| C=CC(=O)N1CCC(Nc2cc3c(Nc4cc(-c5ccc(F)cc5F)ccc4OC)ncnc3cc2OCCCN2CCOCC2)CC1 [Example 269, 1-(4-((4-((2′,4′-difluoro-4-methoxy-[1,1′-biphenyl]-3-yl)amino)-7-(3-morpholinopropoxy)quinazolin-6-yl)amino)piperidin-1-yl)prop-2-en-1-one] | ≤ 150 | ≤ 150 |
| C=CC(=O)Nc1cc2c(Nc3cc(-c4ccco4)ccc3OC)ncnc2cc1OCCN1CCOCC1 [Example 271, N-(4-((5-(furan-2-yl)-2-methoxyphenyl)amino)-7-(2-morpholinoethoxy)quinazolin-6-yl)acrylamide] | ≤ 150 | ≤ 150 |
| C=CC(=O)N1CCC(Nc2cc3c(Nc4cc(-c5ccco5)ccc4OC)ncnc3cc2OCCN2CCOCC2)CC1 [Example 272, 1-(4-((4-((5-(furan-2-yl)-2-methoxyphenyl)amino)-7-(2-morpholinoethoxy)quinazolin-6-yl)amino)piperidin-1-yl)prop-2-en-1-one] | ≤ 150 | ≤ 150 |
| C=CC(=O)Nc1cc2c(Nc3cc(-c4ccco4)ccc3OC)ncnc2cc1OCCCOC [Example 273, N-(4-((5-(furan-2-yl)-2-methoxyphenyl)amino)-7-(3-methoxypropoxy)quinazolin-6-yl)acrylamide] | ≤ 150 | ≤ 150 |
| C=CC(=O)N1CCC(Nc2cc3c(Nc4cc(-c5ccco5)ccc4OC)ncnc3cc2OCCCOC)CC1 [Example 274, 1-(4-((4-((5-(furan-2-yl)-2-methoxyphenyl)amino)-7-(3-methoxypropoxy)quinazolin-6-yl)amino)piperidin-1-yl)prop-2-en-1-one] | ≤ 150 | ≤ 150 |
| C=CC(=O)Nc1cc2c(Nc3cc(-c4ccco4)ccc3OC)ncnc2cc1OCCOC [Example 275, N-(4-((5-(furan-2-yl)-2-methoxyphenyl)amino)-7-(2-methoxyethoxy)quinazolin-6-yl)acrylamide] | ≤ 150 | ≤ 150 |
| C=CC(=O)Nc1cc2c(Nc3cc(-c4ccco4)ccc3OC)ncnc2cc1OCCCN1CCOCC1 [Example 277, N-(4-((5-(furan-2-yl)-2-methoxyphenyl)amino)-7-(3-morpholinopropoxy)quinazolin-6-yl)acrylamide] | ≤ 150 | ≤ 150 |
| C=CC(=O)N1CCC(Nc2cc3c(Nc4cc(-c5ccco5)ccc4OC)ncnc3cc2O[C@H]2CCOC2)CC1 [Example 279, (S)-1-(4-((4-((5-(furan-2-yl)-2-methoxyphenyl)amino)-7-((tetrahydrofuran-3-yl)oxy)quinazolin-6-yl)amino)piperidin-1-yl)prop-2-en-1-one] | ≤ 150 | ≤ 150 |
| C=CC(=O)N1CCC(Nc2cc3c(Nc4cc(-c5ccco5)ccc4OC)ncnc3cc2O[C@@H]2CCOC2)CC1 [Example 280, (R)-1-(4-((4-((5-(furan-2-yl)-2-methoxyphenyl)amino)-7-((tetrahydrofuran-3-yl)oxy)quinazolin-6-yl)amino)piperidin-1-yl)prop-2-en-1-one] | ≤ 150 | ≤ 150 |
| C=CC(=O)N1CCC(Nc2cc3c(Nc4cc(-c5ccc(F)cc5F)ccc4OC)ncnc3cc2O[C@@H]2CCOC2)CC1 [Example 282, (R)-1-(4-((4-((2′,4′-difluoro-4-methoxy-[1,1′-biphenyl]-3-yl)amino)-7-((tetrahydrofuran-3-yl)oxy)quinazolin-6-yl)amino)piperidin-1-yl)prop-2-en-1-one] | ≤ 150 | ≤ 150 |
| C=CC(=O)Nc1cc2c(Nc3cc(-c4ccn5ncnc5c4)ccc3OC)ncnc2cc1OC [Example 287, N-(4-((5-([1,2,4]triazolo[1,5-a]pyridin-7-yl)-2-methoxyphenyl)amino)-7-methoxyquinazolin-6-yl)acrylamide] | ≤ 150 | > 1000 |
| C=CC(=O)Nc1cc2c(Nc3cc(-c4ccc5occc5c4)ccc3OC)ncnc2cc1OC [Example 288, N-(4-((5-(benzofuran-5-yl)-2-methoxyphenyl)amino)-7-methoxyquinazolin-6-yl)acrylamide] | 150 to 1000 | > 1000 |
